Key:
plasma aldosterone = assay: in vivo suppression of plasma aldosterone levels in ACTH-stimulated rats; set-up: species or system Wistar rats; details: rat plasma, 4 mg/kg p.o., 2 h after dosing vs 1 h before dosing
Method: (§1) The aldosterone- and corticosterone-suppressing activity of herein described compounds may be assessed with the following in vivo protocol.
(§2) Adult male Wistar rats weighing between 250 and 350 grams are kept under the usual 12 hour light and 12 hour dark conditions at a temperature of 23° C.±2° C. On the first day of the experiment, the animals receive a subcutaneous injection of a depot ACTH product in a dose of 1.0 mg/kg weight (SYNACTEN-Depot, Novartis, Basel, CH) 16 hours prior to the administration of a test compound. […] An alternative method to stimulate aldosterone secretion consists in subjecting rats to a low salt diet for 48 hours and applying the diuretic furosemide at 10 mg/kg by subcutaneous or intraperitoneal administration 16 hours, respectively 2 hours prior to the start of the experiment. On the second day of the experiment, the animals are divided into test groups of 5 animals and subjected to a first bleed 1 hour prior to the administration of test compound. Subsequently, and 16 hours after the injection of the ACTH product, the animals receive either vehicle or test compound dissolved in vehicle in a variable dose range from 0.02 to 20 mg/kg by oral gavage. The animals are bled two more times from the vena subclavia under isoflurane anesthesia 2 and 6 hours after dosing. The blood is collected in heparin-treated tubes. The plasma samples are obtained by centrifugation and stored at −20° C. An alternative method to bleed animals time-dependently consists in using animals that are chronically carotid catheterized which allows the periodical sampling of up to 0.2 ml of blood using an AccuSampler (DiLab Europe, Lund, Sweden). The blood sampling with the AccuSampler may occur 1 hour prior to the administration of a test compound and 2, 4, 6, 8, 12, 16 and 24 hours thereafter. The blood samples are anti-coagulated with heparin and centrifuged. The aldosterone and corticosterone concentrations of the plasma samples can be determined with a radioimmunoassay as described above for the in vitro test systems.
(§3) The selective suppression of plasma steroid levels as for instance aldosterone in comparison to corticosterone may serve as a measure for in vivo bioavailability and pharmacodynamic enzyme inhibitory activity of the herein described compounds. The evaluation of the data may occur relative to the application of vehicle or quantitatively by determination of the area under the curve (AUC).

plasma corticosterone = assay: in vivo suppression of plasma corticosterone levels in ACTH-stimulated rats; set-up: species or system Wistar rats; details: rat plasma, 4 mg/kg p.o., 2 h after dosing vs 1 h before dosing
Method: as §1, §2, §3

Structure (SMILES) | Aldosterone levels (% change at 2 h) (plasma aldosterone) [%] | Corticosterone levels (% change at 2 h) (plasma corticosterone) [%]
O=[N+]([O-])c1ccccc1C1CCCn2cncc21 (stereo not shown) [Example 13, 8-(2-Nitrophenyl)-5,6,7,8-tetrahydroimidazo[1,5-a]pyridine] | −62 | 0
CC(=O)c1ccc(C2CCn3cncc32)cc1 (stereo not shown) [Example 3, 1-[4-(6,7-Dihydro-5H-pyrrolo[1,2-c]imidazol-7-yl)phenyl]ethanone] | −53 | −13
Fc1ccc(C2CCn3cncc32)cc1F (stereo not shown) [Example 2, 7-(3,4-Difluorophenyl)-6,7-dihydro-5H-pyrrolo[1,2-c]imidazole] | −49 | −32
CC1(C)CCn2cncc2C1c1ccc(C#N)cc1 (stereo not shown) [Example 16, 4-(7,7-Dimethyl-5,6,7,8-tetrahydroimidazo[1,5-a]pyridin-8-yl)benzonitrile] | −21 | −3
CSc1ccc(C2CCCn3cncc32)cc1 (stereo not shown) [Example 12, 8-(4-Methylsulphanylphenyl)-5,6,7,8-tetrahydroimidazo[1,5-a]pyridine] | −61 | 2

Reference: patent publication US8263615B2, “Bis-heterocyclic imidazolyl compounds” (Novartis AG, priority 2005, dated 2012)
